What was measured:
[1] = molecular target: T1, Human adrenergic α2A receptor (Homo sapiens, UniProt P08913); assay: β-Arrestin GPCR functional assay, adrenergic α2A (Protocol B); format: cell-based; settings: for IC50: β-arrestin, antagonist vs nor-epinephrine EC80; for Percentage inhibition, Adrenergic α2A: nor-epinephrine at EC80 (270 nM)
T1 sequence (P08913 1-465): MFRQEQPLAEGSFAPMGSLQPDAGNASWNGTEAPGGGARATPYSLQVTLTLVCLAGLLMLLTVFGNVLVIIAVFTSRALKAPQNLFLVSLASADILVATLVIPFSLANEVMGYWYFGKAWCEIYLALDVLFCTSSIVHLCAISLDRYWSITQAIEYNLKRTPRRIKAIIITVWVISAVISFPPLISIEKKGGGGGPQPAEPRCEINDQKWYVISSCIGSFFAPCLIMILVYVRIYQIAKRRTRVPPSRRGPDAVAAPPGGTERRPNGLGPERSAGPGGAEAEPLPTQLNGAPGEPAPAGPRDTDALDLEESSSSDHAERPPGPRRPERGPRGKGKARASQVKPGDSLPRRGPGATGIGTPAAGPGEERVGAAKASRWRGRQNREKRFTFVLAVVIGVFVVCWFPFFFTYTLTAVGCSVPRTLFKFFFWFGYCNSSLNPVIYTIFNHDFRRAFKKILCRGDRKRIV
Method: To evaluate the activity of compounds in β-Arrestin GPCR functional assays, recombinant CHO cell line (DiscoveRX), over expressed with human adrenergic α2A receptor were used. The experiment was done with kit of DiscoveRX as per recommended protocol of the supplier. Cells were harvested from culture flask using cell dissociation solution (CDS) and plated at a density of 12,000 cells/well in CP reagent (supplied with the kit) in a half area 96-well white polystyrene plate. After 24 h incubation at 37° C., compounds at various concentrations in 1% (final) DMSO were charged to the cells for 30 min at 37° C. Active nor-epinephrine (-NE) at its EC80 concentrations (270 nM) were then added to the cells and incubated for another 90 min at 37° C. Detection mix was prepared by mixing of Path Hunter cell assay buffer, Emerald II solution and Galactone star solution in a ratio of 19:5:1 and incubated with the cells for 60 min at RT in the dark. The reading was taken in Envision at luminescence mode. Biochemical assay results are presented as the percent Inhibition in Table B2a, or IC50 values in Table B2b.

[2] = molecular target: T1, Human adrenergic α2A receptor; assay: Radioligand binding, adrenergic α2A (Protocol Group B); parameters: purchased Milipore (Millipore); settings: Protocol Group B; for Percentage inhibition of ligand binding, Adrenergic α2A (0.1 μM) / inhibition at 0.1 µM: 0.1 μM compound; for Percentage inhibition of ligand binding, Adrenergic α2A (0.3 μM) / inhibition at 0.3 µM: 0.3 μM compound; for Ki: estimated Ki; for inhibition at 0.3 µM: read-out: Percentage inhibition of ligand binding, Adrenergic α2A (0.3 μM); for inhibition at 0.1 µM: read-out: Percentage inhibition of ligand binding, Adrenergic α2A (0.1 μM)
In short: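 Compounds (1% DMSO vehicle, various concentrations) competed against 2 nM [^3H]MK-912 on recombinant receptor membranes for 60 min at 25° C, Tris-HCl pH 7.4 buffer with Mg2+, Ca2+, BSA. Bound radioligand filtered and counted; 10 μM rauwolscine set nonspecific binding. Values: percent inhibition of specific binding or estimated Ki.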

[3] = molecular target: T2, Human adrenergic α2B receptor (Homo sapiens, UniProt P18089); assay: β-Arrestin GPCR functional assay, adrenergic α2B (Protocol B); format: cell-based; settings: for IC50: β-arrestin, antagonist vs nor-epinephrine EC80, read-out: IC50 Adrenergic α2B
T2 sequence (P18089 1-450): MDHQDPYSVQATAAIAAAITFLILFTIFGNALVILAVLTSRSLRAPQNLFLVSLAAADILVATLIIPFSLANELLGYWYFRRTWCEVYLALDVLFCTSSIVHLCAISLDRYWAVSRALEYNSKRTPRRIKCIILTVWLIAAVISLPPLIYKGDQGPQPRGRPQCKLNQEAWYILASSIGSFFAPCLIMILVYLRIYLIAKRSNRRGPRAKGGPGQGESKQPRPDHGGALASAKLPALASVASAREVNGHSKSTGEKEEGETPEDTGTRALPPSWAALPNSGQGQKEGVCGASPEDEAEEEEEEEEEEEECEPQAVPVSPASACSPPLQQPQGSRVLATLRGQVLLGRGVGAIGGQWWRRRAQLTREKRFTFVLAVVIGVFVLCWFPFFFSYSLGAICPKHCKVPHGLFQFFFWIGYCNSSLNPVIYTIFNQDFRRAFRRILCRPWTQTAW
In short: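 CHO cells overexpressing human α2B (PathHunter β-arrestin), 12,000 per well, 24 h at 37° C; compounds in 1% DMSO 30 min, then 50 nM norepinephrine (EC80) 90 min at 37° C.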

[4] = molecular target: T2, Human adrenergic α2B receptor; assay: Radioligand binding, adrenergic α2B (Protocol Group B); parameters: purchased Milipore (Millipore); settings: for Percentage inhibition of ligand binding, Adrenergic α2B (10 nM) / inhibition at 0.01 µM: 10 nM compound; for Percentage inhibition of ligand binding, Adrenergic α2B (10 nM): 0.01 µM; for Percentage inhibition of ligand binding, Adrenergic α2B (30 nM) / inhibition at 0.03 µM: 30 nM compound; for Percentage inhibition of ligand binding, Adrenergic α2B (30 nM): 0.03 µM; for Ki: estimated Ki, read-out: Ki α2B; for inhibition at 0.01 µM: read-out: Percentage inhibition of ligand binding, Adrenergic α2B (10 nM); for inhibition at 0.03 µM: read-out: Percentage inhibition of ligand binding, Adrenergic α2B (30 nM); for inhibition at 0.1 µM: read-out: Percentage inhibition of ligand binding, Adrenergic α2B (0.1 μM)
In short: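 Compounds at various concentrations in 1% DMSO were tested on recombinant membranes in Tris-HCl pH 7.4 buffer containing MgCl2, CaCl2 and 0.2% BSA.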

[5] = 0.1 μM compound, Protocol Group B

Row | SMILES | IC50 [1] [nM] | Percentage inhibition of ligand binding, Adrenergic α2A (0.1 μM) [2] [%] | Percentage inhibition of ligand binding, Adrenergic α2A (0.3 μM) [2] [%] | Ki [2] [nM] | IC50 [3] [nM] | Percentage inhibition of ligand binding, Adrenergic α2B (10 nM) ([4]; Protocol Group B) [%] | Percentage inhibition of ligand binding, Adrenergic α2B (30 nM) ([4]; Protocol Group B) [%] | Percentage inhibition of ligand binding, Adrenergic α2B (0.1 μM) ([4]; 0.1 μM compound, Protocol Group B, 0.1 µM) [%] | Ki ([4]; Protocol Group B) [nM] | inhibition at 0.3 µM [2] [%] | inhibition at 0.01 µM ([4]; Protocol Group B) [%] | inhibition at 0.03 µM ([4]; Protocol Group B) [%] | inhibition at 0.1 µM [4, 5] [%] | inhibition at 0.1 µM [2] [%] | Percentage inhibition, Adrenergic α2A ([1]; 0.1 μM compound) [%] | Percentage inhibition, Adrenergic α2A ([1]; 0.3 μM compound) [%] | inhibition at 0.01 µM ([3]; 10 nM compound, nor-epinephrine at EC80 (50 nM), read-out: Percentage inhibition, Adrenergic α2B) [%] | Percentage inhibition, Adrenergic α2B ([3]; 30 nM compound, nor-epinephrine at EC80 (50 nM)) [%] | Percentage inhibition, Adrenergic α2B ([3]; 0.1 μM compound, nor-epinephrine at EC80 (50 nM)) [%] | Percentage inhibition of ligand binding, Adrenergic α2B, 0.1 nM ([4]; 0.1 nM compound, concentration series, 0.0001 µM) [%]
1 | Cc1ccc2c(c1)c1c(n2CC(C)(O)c2ccnc(F)c2)CCN2CCCC12 (single isomer, unassigned) [48b] | 491 | 83 | 87 | 16.4 | 18 | 92 | 93 | 91 | 0.89 | – | – | – | – | – | – | – | – | – | – | –
2 | Cc1cc(F)cc2c3c(n(CC(O)c4ccncc4)c12)CCN1CCCC31 (single isomer, unassigned) [136a] | 896 | 69 | – | 14.4 | 10.6 | – | – | – | 1.5 | 87 | 91 | 95 | – | – | – | – | – | – | – | –
3 | Cc1cc(F)c2c(c1)c1c(n2CC(C)(O)c2cccnc2)CCN2CCCC12 (stereo not shown) [Compound No. 79a] | 678 | 81 | 93 | 10.6 | 12 | – | 96 | – | 0.77 | – | – | – | 97 | – | – | – | – | – | – | –
4 | CCCOC(Cn1c2c(c3cc(C)ccc31)CN(C)CC2)c1ccncc1 (single isomer, unassigned) [42a] | 3310 | – | – | 55 | 181 | – | – | – | 2.3 | 63 | 74 | 89 | 97 | 37 | – | – | – | – | – | –
5 | Cc1ccc2c(c1)c1c(n2CC(O)c2ccncc2F)CCN2CCCC12 (single isomer, unassigned) [14a] | – | – | 39 | 305 | 124 | 60 | – | – | 6.5 | – | – | 81 | 89 | – | −1 | −2 | 13 | 9 | 41 | −28
6 | CC(O)(Cn1c2c(c3cc(F)ccc31)C1CCCN1CC2)c1ccncc1 (single isomer, unassigned) [31a] | 11400 | – | – | 279 | 87 | – | – | – | 2.2 | 48 | 72 | 90 | 96 | 33 | – | – | – | – | – | –
7 | Cc1cc(Cl)c2c(c1)c1c(n2CC(C)(O)c2ccncc2)CCN2CCCC12 (single isomer, unassigned) [91a] | 865 | – | – | 8.8 | 16.4 | – | – | – | 0.7 | 91 | 93 | 95 | – | 81 | – | – | – | – | – | –
8 | Cc1ccc2c(c1)c1c(n2CC(OC2CCCC2)c2ccncc2)CCN(C)C1 (single isomer, unassigned) [35a] | 2390 | 67 | 86 | 28.5 | 255 | – | – | – | 2.9 | – | 63 | 86 | 96 | – | – | – | – | – | – | –
